Measured values reported in US20210283163A1, “COMPOSITIONS AND METHODS FOR THE TREATMENT OF ACUTE AND CHRONIC PRURITIS” (Duke University, priority 2018, published 2021).

Assays:
[1] = test system: mice; test: Acute pruritus induced by intradermal pruritogens, effect of peptides; format: in vivo, mouse; details: peptide 2 mM
Protocol: Behavioral Assessment for Scratching (Itch) and Wiping (Pain). Mice were shaved on the cheek or nape after a brief anesthesia with isoflurane. Before experiments, mice were habituated in small plastic chambers (14×18×12 cm) daily for two days. The room temperature and humidity remained stable for all the experiments. […] After the injection, the number of scratches in 60 min was counted. A scratch was counted when a mouse lifted its hind paw to scratch the shaved region and returned the paw to the floor or to the mouth. A bout of wiping was defined as a continuous wiping movement with a forepaw directing at the area of the injection area (Shimada and LaMotte, Pain 2008, 139, 681-687). Scratching and wiping behavior was videoed for 30 min or 60 min using Sony HDR-CX610 camera. The video was subsequently played back offline and the numbers of scratches and wipes were quantified in a blinded manner.

[2] = target: T1, TRPV3 (Mus musculus, UniProt Q8K424); test: Whole-cell patch clamp in CHO cells transfected with mouse Trpv3 cDNA; format: cell-based; details: miR-711 10 μM; carvacrol 300 μM
T1 construct: expressed in transfected cells; host or cells: CHO cells (ATCC CRL-9096), plasmid pcDNA3.1-mTrpv3, a gift from Korea University
T1 sequence (Q8K424 1-791): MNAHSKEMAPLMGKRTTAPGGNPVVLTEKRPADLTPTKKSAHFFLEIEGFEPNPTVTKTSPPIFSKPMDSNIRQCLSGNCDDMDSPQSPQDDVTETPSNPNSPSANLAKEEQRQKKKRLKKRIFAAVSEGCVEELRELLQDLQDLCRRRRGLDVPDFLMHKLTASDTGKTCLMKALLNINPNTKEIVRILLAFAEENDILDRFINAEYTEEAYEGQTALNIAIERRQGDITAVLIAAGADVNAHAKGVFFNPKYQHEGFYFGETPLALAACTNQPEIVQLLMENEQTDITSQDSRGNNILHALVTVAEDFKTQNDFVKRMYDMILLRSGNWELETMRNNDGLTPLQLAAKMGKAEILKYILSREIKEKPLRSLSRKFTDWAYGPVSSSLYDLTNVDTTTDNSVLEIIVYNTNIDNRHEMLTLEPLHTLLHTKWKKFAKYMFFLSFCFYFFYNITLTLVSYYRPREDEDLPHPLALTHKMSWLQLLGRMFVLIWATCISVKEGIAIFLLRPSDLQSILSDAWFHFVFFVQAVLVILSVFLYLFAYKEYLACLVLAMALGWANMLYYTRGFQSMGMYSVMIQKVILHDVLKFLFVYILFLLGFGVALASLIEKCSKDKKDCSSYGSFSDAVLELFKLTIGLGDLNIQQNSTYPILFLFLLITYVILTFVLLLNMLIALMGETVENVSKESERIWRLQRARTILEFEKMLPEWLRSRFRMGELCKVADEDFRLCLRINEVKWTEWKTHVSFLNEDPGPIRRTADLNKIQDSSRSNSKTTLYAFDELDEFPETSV
Protocol: (§1) Constructs. The cDNAs of mouse pcDNA3.1-Trpa1, pcDNA3.1-Trpv1, pcDNA3.1-Trpv2, pcDNA3.1-Trpv3, and pcDNA3.1-Trpv4 were kindly provided Dr. Sun Work Hwang from Korea University. Mouse Trpa1 cDNA was subcloned into pCGN-HA backbone (Addgene) using In-Fusion HD Cloning Kit (Clontech Laboratories, CA). Q5 Site-Directed Mutagenesis Kit was used to generate mTrpa1 mutant (M1-M13) based on pCGN-mTrpa1.
Cell Culture and Transfection. CD4^+ Myla cell line was cultured in RPMI 1640 media (GIBCO), supplemented with 2 mM Glutamine (GIBCO), 100 U/mL IL-2 (Sigma), 100 U/mL IL-4 (Sigma), and 10% human AB serum (Sigma). HuT 102 cell line was cultured in RPMI 1640 supplemented with pyruvate, HEPES, and 10% (v/v) fetal bovine serum (HyClone). HEK293-hTRPA1 stable cell line was cultured in MEM (GIBCO) containing 2 mM Glutamine, 4 μg/mL Blasticidin, 10% FBS (v/v). B16 and CHO cells were cultured in high glucose (4.5 g/L) Dulbecco's Modified Eagle's Medium (GIBCO) containing 10% (v/v) fetal bovine serum (GIBCO). Culture media were supplemented with 50 units/mL of penicillin and 50 μg/mL streptomycin, and cultures were maintained with 5% CO2 in 37° C. incubator. Transfection (2 μg cDNA) was performed with Lipofectamine™ 2000 Reagent (Invitrogen) at 80% confluency and the transfected cells were cultured in the same media for 48 hr before electrophysiological and biochemical studies. […]

[3] = target: T2, mTRPA1 mutants (M1-M13) (Mus musculus, UniProt Q8BLA8, L939A/P937A/Y936A); test: Whole-cell patch clamp in CHO cells transfected with mutant mTrpa1 cDNAs (M1-M13); format: cell-based; details: M13, triple mutations (Y936, P937, and L939)
T2 construct: HA; expressed in transfected cells; host or cells: CHO cells (ATCC CRL-9096), transient transfection
Protocol: as §1
(§2) Cell Culture and Transfection. CD4^+ Myla cell line was cultured in RPMI 1640 media (GIBCO), supplemented with 2 mM Glutamine (GIBCO), 100 U/mL IL-2 (Sigma), 100 U/mL IL-4 (Sigma), and 10% human AB serum (Sigma). HuT 102 cell line was cultured in RPMI 1640 supplemented with pyruvate, HEPES, and 10% (v/v) fetal bovine serum (HyClone). HEK293-hTRPA1 stable cell line was cultured in MEM (GIBCO) containing 2 mM Glutamine, 4 μg/mL Blasticidin, 10% FBS (v/v). B16 and CHO cells were cultured in high glucose (4.5 g/L) Dulbecco's Modified Eagle's Medium (GIBCO) containing 10% (v/v) fetal bovine serum (GIBCO). Culture media were supplemented with 50 units/mL of penicillin and 50 μg/mL streptomycin, and cultures were maintained with 5% CO2 in 37° C. incubator. Transfection (2 μg cDNA) was performed with Lipofectamine™ 2000 Reagent (Invitrogen) at 80% confluency and the transfected cells were cultured in the same media for 48 hr before electrophysiological and biochemical studies.
(§3) Whole-Cell Patch Clamp Recordings in HEK293 Cells, CHO Cells, and DRG Neurons. Whole-cell patch clamp recordings were performed at room temperature using an Axopatch-200B amplifier (Axon Instruments) with a Digidata 1440B (Axon Instruments). In this study, we only examined small-diameter mouse DRG neurons (<25 μM) and small-diameter human DRG neurons (<55 μM). The patch pipettes were pulled from borosilicate capillaries (World Precision Instruments) using a P-97 Flaming/Brown micropipette puller (Sutter Instrument). Pipette resistance was 4-6 MΩ for whole-cell and outside-out recording. For inward current recordings in mouse and human DRG neurons, HEK293 cells, and CHO cells, the internal solution contains (in mM): 140 CsCl, 10 EGTA, 10 HEPES, and 2 Mg-ATP, adjusted to pH 7.3 with CsOH. Whole cell recordings were performed in an extracellular solution that contains (in mM): 140 NaCl, 5 KCl, 2 MgCl2, 10 HEPES, and 10 glucose, adjusted to pH 7.4 with NaOH and osmolarity to 300-310 mOsm. […] Action potential recordings were performed in small-diameter DRG neurons, with the following solutions: i) internal pipette solution contains: 126 mM K-gluconate, 10 mM NaCl, 1 mM MgCl2, 10 mM EGTA, 10 mM HEPES and 2 mM Na-ATP, adjusted to pH 7.4 with KOH and osmolarity to 295-300 mOsm), and ii) extracellular solution contains: 140 mM NaCl, 5 mM KCl, 2 mM MgCl2, 2 mM CaCl2, 10 mM HEPES, 10 mM glucose, adjusted to pH 7.4 with KOH.

[4] = target: T3, mTRPA1 mutants (M1-M13) (Mus musculus, UniProt Q8BLA8, P937A); test: as above; format: cell-based; details: M11, single residue mutation of mP937
T3 construct: HA; expressed in transfected cells; host or cells: CHO cells (ATCC CRL-9096), transient transfection
Protocol: as §1, §2, §3

T3 sequence (Q8BLA8 whole entry P937A): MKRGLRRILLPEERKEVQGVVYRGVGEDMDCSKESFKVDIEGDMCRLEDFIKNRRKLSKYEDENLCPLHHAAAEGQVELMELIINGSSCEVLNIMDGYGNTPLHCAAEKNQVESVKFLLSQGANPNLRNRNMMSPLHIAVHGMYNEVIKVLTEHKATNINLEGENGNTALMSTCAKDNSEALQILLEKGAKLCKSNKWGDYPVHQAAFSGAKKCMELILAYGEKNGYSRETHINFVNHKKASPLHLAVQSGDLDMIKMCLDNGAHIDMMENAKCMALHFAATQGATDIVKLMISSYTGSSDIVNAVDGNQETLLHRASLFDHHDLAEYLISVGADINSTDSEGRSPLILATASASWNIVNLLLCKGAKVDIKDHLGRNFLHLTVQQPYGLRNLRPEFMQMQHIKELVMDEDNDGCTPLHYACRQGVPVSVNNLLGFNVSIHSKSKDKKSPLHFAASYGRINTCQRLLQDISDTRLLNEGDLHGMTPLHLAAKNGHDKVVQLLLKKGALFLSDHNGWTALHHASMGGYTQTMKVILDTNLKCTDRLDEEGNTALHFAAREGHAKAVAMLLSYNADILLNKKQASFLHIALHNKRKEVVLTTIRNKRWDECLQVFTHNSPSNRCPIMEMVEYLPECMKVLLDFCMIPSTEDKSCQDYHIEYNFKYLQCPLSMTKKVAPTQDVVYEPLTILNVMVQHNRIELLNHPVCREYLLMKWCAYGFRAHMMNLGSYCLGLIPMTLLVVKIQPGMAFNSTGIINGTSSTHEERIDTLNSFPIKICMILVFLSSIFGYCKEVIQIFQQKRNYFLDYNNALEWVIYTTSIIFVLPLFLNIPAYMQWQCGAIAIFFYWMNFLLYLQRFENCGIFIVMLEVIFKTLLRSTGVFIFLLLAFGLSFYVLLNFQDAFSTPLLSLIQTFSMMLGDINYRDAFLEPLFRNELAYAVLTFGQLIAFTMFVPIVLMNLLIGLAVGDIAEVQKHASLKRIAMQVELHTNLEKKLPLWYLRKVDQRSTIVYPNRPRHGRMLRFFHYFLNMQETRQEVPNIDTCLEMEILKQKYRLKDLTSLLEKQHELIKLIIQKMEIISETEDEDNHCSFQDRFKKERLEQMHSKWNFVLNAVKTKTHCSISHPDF
T2 sequence (Q8BLA8 whole entry Y936A/P937A/L939A): as the sequence (Q8BLA8 whole entry P937A) above, with Y936A, L939A counted along it

Substance | effect on miR-711-induced pruritus ([1]; 15 μL intradermal, mmu-miR-711 1 mM, 10 μL) | effect on acute itch induced by compound 48/80 ([1]; 15 μL, 48/80 50 μg/10 μL) | effect on acute itch induced by chloroquine ([1]; 15 μL, CQ 100 μg/10 μL) | inward currents [2] | current in mutant [3] | evoked currents in mutant [4]
NH2-FRNELAYPVLTFGQL-COOH (H-FRNELAYPVLTFGQL-OH) [blocking peptide] | prevented | no effect | no effect | – | – | –
miR-711: mmu-miR-711: gggacccggggagagauguaag (SEQ ID NO: 5) (GGGACCCGGGGAGAGAUGUAAG; chemistry not given here) | – | – | – | failed to trigger inward currents | further reduction | markedly reduced
